US20200222400A1, “METHODS FOR THE TREATMENT OF NEUROLOGICAL DISORDERS” (Yumanity Therapeutics, Inc., priority 2019, published 2020)

Legend:
[1] = system: apolipoprotein E4 (ApoE4) Alzheimer's disease yeast model; experiment: ApoE4 yeast model rescue (growth, OD600); type: cell-based, Saccharomyces cerevisiae; settings: 12-point dose
Description: Strain ApoE-mga2Δ was generated by amplifying 1000 base pairs (bp) upstream and downstream of the MGA2 ORF in a strain in which MGA2 was deleted using a G418 (GENETICIN®) resistance cassette (kanMX) (Piotrowski et al. Proc. Natl. Acad. Sci. USA 112(12):E1490-1497, 2015) and transforming the resulting deletion cassette into the ApoE4 strain in the BY4741 (ATCC 201388) genetic background. The ApoE strain is described, for example, in International Patent Application Publication No. WO 2016/040794, which is incorporated herein by reference in its entirety.
(§1) All compound profiling experiments were performed using the same basic protocol. Different genetic backgrounds (e.g., gene deletions) or conditions (e.g., addition of oleic and palmitoleic acid) were replaced as indicated below.
Yeast were cultured using standard techniques in complete synthetic media (CSM) and yeast nitrogen base supplemented with 2% (w/v) carbon source (glucose, raffinose, or galactose) to regulate the expression of the toxic disease protein. An initial starter culture was inoculated in 3 mL CSM-Glucose media and incubated overnight in a 30° C. shaker incubator (225 rpm). […]
(§2) After yeast delivery, assay plates were incubated under humidified conditions at 30° C. for 24 to 40 h. […] The growth of yeast was monitored by reading the OD600 of each well using a microplate reader (Perkin Elmer EnVision™). […]

Ole1/SCD = experiment: Yeast growth inhibition in control / wild-type condition (OD600); type: cell-based, Saccharomyces cerevisiae; settings: ApoE4 strain, non-inducing conditions, raffinose
Description: Strain GMYF was constructed from the ABC16/Green monster strain described in Suzuki et al. Nat. Methods 8(2):159-164, 2011. In this strain, YAP1 was deleted using a HIS3-MX6 cassette, and FLR1 was deleted using a NAT-MX6 cassette using standard methods. The knockout cassettes were PCR-amplified from plasmid templates (see, e.g., Bahler et al. Yeast 14(10):943-951, 1998; Longtine et al. Yeast 14(10):953-961, 1998) and transformed into yeast using lithium acetate-based transformation (Gietz et al. Methods Mol. Biol. 1205:1-12, 2014). The yap1::his3 deletion strain was selected on media lacking histidine and flr1::NAT on plates containing 100 μg/mL nourseothricin. All strains were confirmed by diagnostic PCR. Strain W303 pdr1Δ pdr3Δ was constructed from W303-1A (American Type Culture Collection (ATCC) 208352) by deleting PDR1 and PDR3 with kan-MX6 cassettes separately in MATa and MATα W303a isolates, mating, sporulating, and identifying the double deletion haploids by tetrad dissection and identification of non-parental ditype tetrads. Strain W-erg3 was derived from W303 pdr1Δ pdr3 by deleting SNQ2 with NAT-MX6, YAP1 with HIS3-MX6, and ERG3 with BleMX. […]
as §2

[2] = system: cellular fatty acid desaturase activity (Ole1); experiment: Quantitative lipid profiling of yeast by LC-MS/MS; type: cell-based, Saccharomyces cerevisiae
Procedure: Overnight cultures of yeast strain W303 pdr1Δ pdr3Δ were diluted into CSM media with 2% (w/v) raffinose, OD600 0.25, and grown for 4 h before resuspending at an OD600 of 0.2 in CSM media with 2% (w/v) galactose and adding Compound 2 or DMSO at the indicated concentrations. Cells were grown for the indicated timepoints before centrifugation, washing once in PBS, and freezing pellets. Lipids were extracted from pellets by resuspending the pellets in 600 μL methanol, 300 μL water, and 400 μL chloroform, followed by cell lysis by vortexing with glass beads for 1 min. Samples were then centrifuged at 10,000×g for 10 min, and the bottom layer that formed (organic/lipids) was moved into a new tube and evaporated. Samples were then analyzed by LC/MS/MS using a Thermo Scientific Q Exactive™ Orbitrap™ coupled to a Dionex UltiMate® 3000 ultra-high performance liquid chromatography system, following the method described in Tafesse et al. PLoS Pathog. 11(10): e1005188, 2015.

yeast OLE1 = target: T1, yeast OLE1 (Saccharomyces cerevisiae, UniProt P21147); experiment: Growth of yeast surviving solely on yeast OLE1; type: cell-based; settings: percent of DMSO-treated condition
T1 construct: expressed in transfected cells; host or cells: S. cerevisiae ole1Δ strain (W303 pdr1Δ pdr3Δ background), pRS316 plasmid, TDH3 promoter
T1 sequence (P21147 1-510): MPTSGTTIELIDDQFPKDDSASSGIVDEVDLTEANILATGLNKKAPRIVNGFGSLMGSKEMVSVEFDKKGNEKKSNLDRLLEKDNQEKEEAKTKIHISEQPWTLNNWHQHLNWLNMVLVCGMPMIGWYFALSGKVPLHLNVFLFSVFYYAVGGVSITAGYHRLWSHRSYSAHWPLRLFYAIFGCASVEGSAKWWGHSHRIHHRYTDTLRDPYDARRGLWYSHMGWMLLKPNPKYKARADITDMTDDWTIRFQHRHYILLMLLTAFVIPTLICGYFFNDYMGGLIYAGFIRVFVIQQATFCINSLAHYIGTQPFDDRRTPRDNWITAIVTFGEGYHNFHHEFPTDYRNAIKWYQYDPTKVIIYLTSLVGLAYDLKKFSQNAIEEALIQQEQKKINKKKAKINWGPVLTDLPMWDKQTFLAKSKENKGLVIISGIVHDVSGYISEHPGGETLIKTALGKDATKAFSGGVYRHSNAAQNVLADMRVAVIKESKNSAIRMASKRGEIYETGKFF
Description: (§3) To generate yeast strains expressing SCD1 or SCD5 as the sole desaturase, the human SCD1 and SCD5 genes were cloned from cDNAs (Harvard PlasmID database Clone ID HsCD00340237 for SCD1 and HsCD00342695 for SCD5) into yeast plasmid pRS316 (ATCC 77145) between the yeast TDH3 promoter and the CYC1 terminator. The coding sequence of yeast OLE1 was also cloned into this plasmid). These clones were then transformed into the ole1Δ strain and plated on CSM-Ura media (CSM lacking uracil) with 2% glucose (w/v) and independent colonies were isolated and amplified.
as §1
(§4) Compound stocks (10 mM in 100% DMSO) were arrayed into 384 round well, v-bottom polypropylene plates and diluted according to indicated dilution factors. Compound administration was performed in two separate steps. First, 15 μL of CSM-Galactose (induces expression of toxic protein) was dispensed into clear 384 well assay plates using a MULTIDROP™ Combi reagent dispenser. The diluted compound stock plates were then applied to the assay plates using an automated workstation (Perkin Elmer JANUS™) outfitted with a 384 pin tool containing slotted pins that deliver 100 nL of compound. The cultures described above were then diluted to a 2× concentration (0.03 and 0.08 for alpha-synuclein and ApoE, final OD600 of 0.015 and 0.04) in CSM-Galactose. For wild-type and Ole1/SCD1/SCD5 plasmid-containing strains, the 2× cell density was 0.02. In all experiments, 15 μL culture was then dispensed into the pinned assay plate to achieve 30 μL of the 1×OD600 culture and a top drug concentration of […]. For 96-well assays (FIGS. 2A and 2B), compound dilutions in DMSO were generated in 96 well plates and 1 μL was manually pipetted into 96 well clear bottom assay plates.
(§5) For experiments using a plasmid-borne copy of Ole1, SCD1, or SCD5 (FIGS. 4B, 7, and 8), media lacking uracil (SX-Ura, where X is glucose, raffinose, or galactose), was used for all steps of the compound profiling protocol to ensure its maintenance throughout the assay.
(§6) After yeast delivery, assay plates were incubated under humidified conditions at 30° C. for 24 to 40 h. ApoE4 rescue experiments were stopped at 24 h, aSyn experiments at 40 h, Ole1 at 24 h, and SCD1/SCD5 at 40 h. The growth of yeast was monitored by reading the OD600 of each well using a microplate reader (Perkin Elmer EnVision™). For model rescue experiments, raw data were processed by background subtracting and calculating a fold-change relative to DMSO control [(EXP−0.035)/(DMSO−0.035)—where 0.035 is the OD600 contributed by an empty well containing 30 μL of media alone]. For growth inhibition of wild-type cells, raw data were processed by background subtracting and converting values to a percent of the nontreated condition for that strain [(EXP−0.035)/(DMSO−0.035)×100%].

human SCD1 = target: T2, human SCD1 (Homo sapiens, UniProt O00767); experiment: Growth of humanized yeast expressing human SCD1 as sole desaturase; type: cell-based, humanized yeastized yeastized yeastized yeast; settings: for half-maximal inhibitory concentration (IC50), SCD1 humanized strain: yeast growth
T2 construct: host or cells: S. cerevisiae ole1Δ strain (W303 pdr1Δ pdr3Δ background), pRS316 plasmid, TDH3 promoter
T2 sequence (O00767 1-359): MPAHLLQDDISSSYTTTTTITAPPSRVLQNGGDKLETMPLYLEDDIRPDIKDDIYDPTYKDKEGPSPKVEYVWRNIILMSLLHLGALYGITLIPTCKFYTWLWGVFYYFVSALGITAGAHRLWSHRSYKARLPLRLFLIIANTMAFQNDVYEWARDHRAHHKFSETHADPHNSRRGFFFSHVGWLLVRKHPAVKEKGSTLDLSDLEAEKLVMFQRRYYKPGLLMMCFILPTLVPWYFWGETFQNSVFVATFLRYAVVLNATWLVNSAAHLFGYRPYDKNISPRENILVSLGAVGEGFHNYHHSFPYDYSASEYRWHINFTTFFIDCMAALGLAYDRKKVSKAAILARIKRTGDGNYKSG
Procedure: The coding sequence of yeast OLE1 was also cloned into this plasmid). These clones were then transformed into the ole1Δ strain and plated on CSM-Ura media (CSM lacking uracil) with 2% glucose (w/v) and independent colonies were isolated and amplified.
as §1
Compound administration was performed in two separate steps. First, 15 μL of CSM-Galactose (induces expression of toxic protein) was dispensed into clear 384 well assay plates using a MULTIDROP™ Combi reagent dispenser. […] The cultures described above were then diluted to a 2× concentration (0.03 and 0.08 for alpha-synuclein and ApoE, final OD600 of 0.015 and 0.04) in CSM-Galactose. For wild-type and Ole1/SCD1/SCD5 plasmid-containing strains, the 2× cell density was 0.02.
as §5
After yeast delivery, assay plates were incubated under humidified conditions at 30° C. for 24 to 40 h. ApoE4 rescue experiments were stopped at 24 h, aSyn experiments at 40 h, Ole1 at 24 h, and SCD1/SCD5 at 40 h. The growth of yeast was monitored by reading the OD600 of each well using a microplate reader (Perkin Elmer EnVision™).

human SCD5 = target: T3, human SCD5 (Homo sapiens, UniProt Q86SK9); experiment: Growth of humanized yeast expressing human SCD5 as sole desaturase; type: cell-based, Saccharomyces cerevisiae expressing Saccharomyces cerevisiae expressing Saccharomyces cerevisiae expressing Saccharomyces cerevisiae expressing Saccharomyces cerevisiae expressing human SCD5 SCD5 SCD5 SCD5 SCD5; settings: for half-maximal inhibitory concentration (IC50), SCD5 humanized strain: yeast growth
T3 construct: host or cells: S. cerevisiae ole1Δ strain (W303 pdr1Δ pdr3Δ background), pRS316 plasmid, TDH3 promoter
T3 sequence (Q86SK9 1-330): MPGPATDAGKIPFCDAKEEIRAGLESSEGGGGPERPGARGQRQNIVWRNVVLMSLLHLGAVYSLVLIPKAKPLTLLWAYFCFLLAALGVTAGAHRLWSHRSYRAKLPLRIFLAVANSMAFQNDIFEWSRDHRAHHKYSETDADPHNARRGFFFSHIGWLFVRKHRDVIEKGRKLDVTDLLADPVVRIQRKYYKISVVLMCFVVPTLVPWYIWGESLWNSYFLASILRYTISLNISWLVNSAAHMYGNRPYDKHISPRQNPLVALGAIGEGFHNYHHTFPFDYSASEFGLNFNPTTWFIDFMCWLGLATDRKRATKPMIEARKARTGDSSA
Description: as §3, §1, §4, §5, §6

[3] = percent of DMSO-treated condition

SMILES | growth inhibition of yeast expressing OLE1 (yeast OLE1) | half-maximal inhibitory concentration (IC50), SCD1 humanized strain (human SCD1) | half-maximal inhibitory concentration (IC50), SCD5 humanized strain (human SCD5) | also measured
COc1ccc(-c2noc(C3CCN(C(=O)CNC(=O)c4ccccc4)CC3)n2)cc1OC [Compound 1, N-(2-(4-(3-(3,4-dimethoxyphenyl)-1,2,4-oxadiazol-5-yl)piperidin-1-yl)-2-oxoethyl)benzamide] |  |  |  | rescue dose-response in ApoE4 model (OD600) [1]: bell-shaped dose-response curve; growth in control (non-inducing) condition (Ole1/SCD): growth decreased at this same concentration
Cc1nn(C)c2cc(-c3noc(C4CCN(C(=O)CNC(=O)c5ccccc5)CC4)n3)ccc12 [Compound 2, N-(2-(4-(3-(1,3-dimethyl-1H-indazol-6-yl)-1,2,4-oxadiazol-5-yl)piperidin-1-yl)-2-oxoethyl)benzamide] |  |  |  | decrease in abundance of unsaturated lipid phosphatidylcholine 16:1, 18:1 ([2]; 8 h treatment, wild-type yeast): > 12 fold; increase in abundance of saturated lipid phosphatidylcholine 26:0 ([2]; 8 h treatment, wild-type yeast): > 300 fold; lipid desaturation ([2]; yeast cells): inhibited lipid desaturation
CNC(=O)c1cccc(NC(=O)N2CCC(Oc3ccccc3Cl)CC2)c1 [Compound A939572] | resistant | low nanomolar | low nanomolar | 
C[C@@H]1C[C@@H]([C@H](O)CC2CC(=O)NC(=O)C2)C(=O)[C@@H](C)C1 [Cyclohexamide, cycloheximide] | inhibited growth of all three strains with the same potency |  |  | growth inhibition of SCD1-expressing yeast (human SCD1; [3]): inhibited growth of all three strains with the same potency; growth inhibition of SCD5-expressing yeast (human SCD5; [3]): inhibited growth of all three strains with the same potency
Cc1nnc(-c2ccc(N3CCC(Oc4ccccc4C(F)(F)F)CC3)nn2)s1 [MF-438] | resistant | low nanomolar | low nanomolar | 
O=C(O)Cn1nnc(-c2cc(N3CCC(Oc4cc(F)ccc4Br)CC3)no2)n1 [MK-8245] | resistant |  | low nanomolar | 
